# Results published in patent US20220175675A1, “ENCAPSULATING MOLECULES IN FAT GLOBULES” (The Regents of the University of California, priority 2019, published 2022).
# How the values were obtained:
# [1] = Encapsulation of hydrophobic compounds into milk fat globules (loading capacity, encapsulation efficiency); type: physicochemical, bovine; conditions: 10% v/v ethanol, 30 min
# Protocol: Raw milk was procured from a local market and stored at 4° C. Milk was used for up to 4 days post purchase. MFGs were separated from raw milk using centrifugal separation following a modified version of the method by Gallier et al. (2010) (12). First, raw milk was diluted with Milli-Q water at 9:1 water to milk, and the solution was centrifuged at 3,000×g for 5 min using a fixed angle centrifuge rotor. Cream was then skimmed off the sides of the centrifuged tubes after discarding the aqueous phase. In order to remove more of the milk serum components, cream was reconstituted in water to reach 4% w/v, and subjected to another step of centrifugation at 3,000×g for 5 min Cream was collected as detailed prior, then reconstituted to 20% w/v in Milli-Q water. All separation steps were completed at room temperature.
# Encapsulation of test compounds in MFGs was accomplished by mixing ethanolic stock solution of a compound with 20% w/v cream suspended in water. The mixture was gently inverted several times to mix, then allowed in incubate in the dark.
# To test the effect of incubation temperature on the partitioning and encapsulation yield and efficiency, RA was added at 250 μM concentration and was allowed to incubate with MFGs for 30 min at 4, 22, and 40° C.
# To quantify the amount of compound encapsulated in MFGs, cream was separated from ethanol-containing aqueous phase via centrifugal separation at 3,000 x g for 5 min. Cream was skimmed and added to methanol at 50 mg/mL and vortexed vigorously for 1 min, then centrifuged at 16,000×g for 10 min. Top layer of methanol was collected and absorbance was measured at appropriate wavelength for each compound. An absorbance blank was prepared following the same encapsulation and separation steps in the absence of compound. λmax in methanol (nm) for each compound is reported in Table 1.
# Cream (20% w/v in Milli-Q water) that was separated following the steps in Example 2 was further separated via centrifugation at 3,000×g for 5 min. Fat content in cream was measured using a modified Folch method (13). An additional washing step was incorporated where the chloroform/water interface was washed with 1:1 water/methanol solution.
# [2] = Loading of vitamin D3 in bovine milk fat globules; type: physicochemical; conditions: for EE %, 1% v/v ethanol / EE %, 10% v/v ethanol / LY, 1% v/v ethanol / LY, 10% v/v ethanol: Bovine MFGs, 30 minutes
# Protocol: Raw milk was diluted with Milli-Q water at 9:1 water to milk. Cream was separated from diluted milk via centrifugation at 3,000×g for 5 min. Cream was collected and reconstituted in water at 4% w/v concentration. The mixture was then further centrifuged at 3,000×g for 5 min. The cream was then collected and reconstituted to desired weight/volume in water (20% w/v in water).
# Encapsulation of VD3 was achieved by incubation of compound's ethanolic solution with 20% w/v cream suspended in water. Once well mixed by gently inverting the tube, the contents were allowed to incubate in the dark. […] Significant values were reported with a 95% confidence interval, i.e. p<0.05.
# Incubation time was varied: 15, 30, 45, and 60 min. The effect of incubation time on the encapsulation of VD3 in bovine MFGs was assessed using a t-test with adjusted significance level using Bonferroni correction (p=0.008). These statistical analyses were carried out using Microsoft Excel 2010 (Microsoft Inc., Bellevue, WA, U.S.A.). All procedures were conducted with minimal exposure to light. The experiments were conducted in triplicates.
# At the end of the incubation period with VD3, cream was separated by centrifuging the suspension at 3,000×g for 5 min Cream was skimmed off the top with particular care not to include any of the aqueous phase. Methanol was added at 50 mg/mL and vortexed vigorously for 1 min. The mixture was then centrifuged at 3,000×g for 30 min. Liquid phase was collected and absorbance was measured at 264 nm. Absorbance blank was prepared fresh during every encapsulation run by introducing ethanol to cream suspended in water. Absorbance of the blank was subtracted from test samples to remove the absorbance of solvent, lipids, and other MFGs components. All experiments were conducted in triplicates.
# Fat content in cream was measured to calculate the loading yield. The fat was isolated using the same set of preparation steps detailed in Example 13 with the addition of the last centrifugation step to recover cream after at the end of the loading process. The total fat content was determined using a modified Folch method (Folch, Lees, & Sloane-Stanley, 1957) where an additional step of washing the chloroform/water interface with 1:1 water/methanol solution was added to remove milk serum components. The loading yield of VD3 in milk fat was calculated as follows: […]
# where CE is the VD3 extracted from MFGs (μg), and MF is the mass of milk fat (g) in MFGs suspension. The extraction procedure was conducted in triplicates using independent milk samples.
compound,measurement,setting,value
C=C1CC[C@H](O)C/C1=C/C=C1\CCC[C@]2(C)[C@@H]([C@H](C)CCCC(C)C)CC[C@@H]12 [Cholecalciferol],% Encapsulation efficiency,"[1]; 50 μM added compound, room temperature",68.60 ± 6.30%
same,% Encapsulation efficiency,"[1]; 100 μM added compound, room temperature",69.58 ± 6.44%
same,% Encapsulation efficiency,"[1]; 150 μM added compound, room temperature",67.62 ± 3.67%
same,% Encapsulation efficiency,"[1]; 200 μM added compound, room temperature",63.59 ± 1.43%
same,% Encapsulation efficiency,"[1]; 250 μM added compound, room temperature",49.84 ± 3.74 %
same,% Encapsulation efficiency,"[1]; 500 μM added compound, room temperature",45.25 ± 3.00 %
same,% Encapsulation efficiency,"[1]; 1000 μM added compound, room temperature",24.77 ± 0.84 %
same,% Encapsulation efficiency,"[1]; 1500 μM added compound, room temperature",28.92 ± 3.43 %
same,% Encapsulation efficiency,"[1]; 2000 μM added compound, room temperature",19.66 ± 1.05 %
same,% Encapsulation efficiency,"[1]; 2500 μM added compound, room temperature",19.22 ± 2.88 %
same,maximal loading capacity (LC),"[1]; maximal value over 50-2500 μM, room temperature",22.12 μg per gram of milk fat
same,"encapsulation efficiency (EE %), maximal/overall value",[1]; over tested concentrations,69%
same,"EE %, 1% v/v ethanol",[2]; 50 μM,20.81 ± 8.82%
same,"EE %, 10% v/v ethanol",[2]; 50 μM,27.72 ± 7.94%
same,"LY, 1% v/v ethanol",[2]; 50 μM,19.78 ± 8.38 μg of VD3 per gram of milk fat
same,"LY, 10% v/v ethanol",[2]; 50 μM,26.34 ± 7.55 μg of VD3 per gram of milk fat
same,"EE %, 1% v/v ethanol",[2]; 100 μM,18.45 ± 0.91%
same,"EE %, 10% v/v ethanol",[2]; 100 μM,21.09 ± 1.10%
same,"LY, 1% v/v ethanol",[2]; 100 μM,35.07 ± 1.73 μg of VD3 per gram of milk fat
same,"LY, 10% v/v ethanol",[2]; 100 μM,40.09 ± 2.10 μg of VD3 per gram of milk fat
same,"EE %, 1% v/v ethanol",[2]; 150 μM,15.43 ± 1.27%
same,"EE %, 10% v/v ethanol",[2]; 150 μM,20.67 ± 1.97%
same,"LY, 1% v/v ethanol",[2]; 150 μM,44.00 ± 3.63 μg of VD3 per gram of milk fat
same,"LY, 10% v/v ethanol",[2]; 150 μM,58.93 ± 5.61^†¥ μg of VD3 per gram of milk fat
same,"EE %, 1% v/v ethanol",[2]; 200 μM,12.31 ± 3.56%
same,"EE %, 10% v/v ethanol",[2]; 200 μM,18.51 ± 1.52 %
same,"LY, 1% v/v ethanol",[2]; 200 μM,46.78 ± 13.52 μg of VD3 per gram of milk fat
same,"LY, 10% v/v ethanol",[2]; 200 μM,70.37 ± 5.79^†‡¥ μg of VD3 per gram of milk fat
same,"EE %, 1% v/v ethanol",[2]; 250 μM,14.28 ± 1.89%
same,"EE %, 10% v/v ethanol",[2]; 250 μM,16.85 ± 2.94 %
same,"LY, 1% v/v ethanol",[2]; 250 μM,67.84 ± 9.00 μg of VD3 per gram of milk fat
same,"LY, 10% v/v ethanol",[2]; 250 μM,80.07 ± 14.00 μg of VD3 per gram of milk fat
same,VD3 loaded into MFGs (up to),[2]; bovine MFGs,Up to 80 μg/g milk fat
same,reduction in the encapsulation yield with extended incubation,"[2]; bovine MFGs, incubation up to 60 min vs 45 min, 10% v/v ethanol, 250 μM VD3",approx. 8%
